Test [1] relates to activation of MAPK within vascular endothelial cells induced by VEGF stimulation. As to the kind of experiment: Inhibitory activity against activation of MAPK within vascular endothelial cells induced by VEGF stimulation. It is filed as cell-based. The settings on record: human funicular venous vascular endothelial cells, VEGF 50 ng/ml, phosphorylated MAPK by immunoblotting. On the procedure:
Measurement of Inhibitory Activity Against Activation of MAPK Within Vascular Endothelial Cells Induced by VEGF Stimulation
Human funicular venous vascular endothelial cells (purchased from Chronetics) were cultured in an EGM-2 medium (purchased from Chronetics) within an incubator containing 5% carbon dioxide until 50 to 70% confluent, and the culture was inoculated into wells, containing the same medium, in a 96-well flat-bottom plate in an amount of 1.5×10^5 per well. After cultivation at 37° C. overnight, the medium was replaced by an EBM-2 medium containing 0.5% fetal calf serum (purchased from Chronetics), followed by cultivation for 24 hr. A solution of the test compound in dimethyl sulfoxide was added to each well, and the cultivation was continued at 37° C. for additional one hr. A human recombinant vascular endothelial growth factor (hereinafter abbreviated to “VEGF”) was added to a final concentration of 50 ng/ml, and the stimulation of cells was carried out at 37° C. for 8 min. The medium was removed, the cells were washed with phosphate buffered saline (pH 7.4), and 10 μl of a solubilization buffer (Tris buffered saline (pH 7.4) containing 1% Triton X100, 2 mM sodium orthovanadylate, and 1 mM disodium ethylenediaminetetraacetate) was then added thereto. The mixture was shaken at 4° C. for one hr to solubilize the cells. An equal amount of Tris buffered saline containing 1% sodium laurylsulfate was added to and thoroughly mixed with the solution. This solution (2 μl) was adsorbed on a PVDF filter by dot blotting, and this filter was subjected to immunoblotting with anti-tyrosine phosphorylated MAPK antibody (purchased from Daiichi Pure Chemicals).
The level of phosphorylated MAPK was quantitatively determined with a densitometer, and the percentage phosphorylated MAPK in the presence of the test compound was determined by presuming the level of phosphorylated MAPK with the addition of VEGF in the absence of the test compound to be 100% and the level of phosphorylated MAPK in the absence of the test compound and VEGF to be 0%. The test compound concentration (IC50) necessary for inhibiting 50% of the activation of MAPK was calculated based on the percentage of phosphorylated MAPK.
(Immunoblotting shows a protein as a band on a membrane.)

A further test has as its target T1, human KDR (Homo sapiens, UniProt P35968).
T1 construct: expressed in transfected cells; host or cells: NIH 3T3 cells (Sawano A et al., Cell Growth & Differentiation 7, 213-221 (1996))
As to the kind of experiment: Inhibitory activity against KDR phosphorylation by ELISA. The class given is cell-based. As to conditions: NIH 3T3 cells transfected with human KDR, VEGF 100 ng/ml. (In general: In an ELISA, binding on a coated surface is turned into a signal by an enzyme label.)

For a further test, the system named is Human glioma cells GL07. Nature of the test: Antitumor effect on human glioma cells (GL07) transplanted into nude mice. The class given is in vivo. As to conditions: GL07, oral, 20 mg/kg once a day for 9 days; for inhibition in vivo at 20 mg/kg: Mus musculus, Glioma cell, 216 h, read-out: TGIR, % (tumor growth inhibition rate). The method in brief:
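GL07 xenografts in nude mice, grouped (n=4) at ~100 mm^3 tumor volume. Test compound 20 mg/kg p.o. or i.p. once daily for 9 days; vehicle controls. TGIR = (1−Tx/Cx)×100 from tumor volumes normalized to day-of-start volume = 1.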

T1 sequence (P35968 20-1356): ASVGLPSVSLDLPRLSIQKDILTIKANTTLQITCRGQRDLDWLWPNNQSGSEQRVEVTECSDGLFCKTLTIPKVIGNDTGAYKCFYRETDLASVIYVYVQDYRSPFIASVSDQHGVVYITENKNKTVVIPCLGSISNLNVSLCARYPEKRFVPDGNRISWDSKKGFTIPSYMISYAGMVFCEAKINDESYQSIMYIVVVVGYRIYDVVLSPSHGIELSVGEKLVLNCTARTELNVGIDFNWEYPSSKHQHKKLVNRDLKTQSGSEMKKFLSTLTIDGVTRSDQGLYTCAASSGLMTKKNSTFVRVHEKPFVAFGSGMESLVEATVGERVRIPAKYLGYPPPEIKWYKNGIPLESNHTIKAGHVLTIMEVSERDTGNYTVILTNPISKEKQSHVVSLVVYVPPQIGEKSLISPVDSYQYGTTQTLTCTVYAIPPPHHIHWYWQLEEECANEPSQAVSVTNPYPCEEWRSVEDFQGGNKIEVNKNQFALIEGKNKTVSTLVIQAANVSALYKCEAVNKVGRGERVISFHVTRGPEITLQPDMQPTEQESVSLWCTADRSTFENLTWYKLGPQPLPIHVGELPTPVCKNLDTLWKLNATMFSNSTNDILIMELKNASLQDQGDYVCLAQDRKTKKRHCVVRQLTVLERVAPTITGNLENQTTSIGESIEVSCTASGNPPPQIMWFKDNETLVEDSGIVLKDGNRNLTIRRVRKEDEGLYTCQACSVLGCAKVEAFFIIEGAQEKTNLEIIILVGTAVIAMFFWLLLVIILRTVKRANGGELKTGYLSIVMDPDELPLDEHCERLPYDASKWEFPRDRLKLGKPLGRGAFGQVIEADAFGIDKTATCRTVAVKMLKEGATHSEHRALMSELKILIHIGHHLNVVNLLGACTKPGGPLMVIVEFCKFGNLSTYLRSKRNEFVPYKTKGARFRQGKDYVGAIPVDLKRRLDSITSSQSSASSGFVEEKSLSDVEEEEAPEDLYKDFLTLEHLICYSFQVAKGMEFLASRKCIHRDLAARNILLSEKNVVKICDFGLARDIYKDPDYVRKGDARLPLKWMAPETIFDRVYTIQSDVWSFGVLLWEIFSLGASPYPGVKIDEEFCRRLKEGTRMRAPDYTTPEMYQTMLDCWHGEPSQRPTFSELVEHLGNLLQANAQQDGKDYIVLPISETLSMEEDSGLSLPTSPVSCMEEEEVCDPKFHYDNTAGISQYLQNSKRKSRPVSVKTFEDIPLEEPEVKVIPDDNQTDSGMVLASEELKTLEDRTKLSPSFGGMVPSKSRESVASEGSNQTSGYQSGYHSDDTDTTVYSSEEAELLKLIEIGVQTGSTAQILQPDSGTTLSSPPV

Regarding `CCC(C)NC(=O)Nc1ccc(Oc2ccnc3cc(OC)c(OC)cc23)cc1F` (stereo not drawn) [Example 10, N-(sec-Butyl)-N′-{4-[(6,7-dimethoxy-4-quinolyl)oxy]-2-fluorophenyl}urea], in test [1] (Endothelial cell), half-maximal inhibition (IC50) was put at 7.8 nM. The same measure, in the same setting: with `COc1cc2nccc(Oc3ccc(NC(=O)NCC(C)C)c(F)c3)c2cc1OC` [Example 11, N-{4-[(6,7-Dimethoxy-4-quinolyl)oxy]-2-fluorophenyl}-N′-isobutylurea] the figure was 15 nM. As for `COCCOc1cc2nccc(Oc3ccc(NC(=O)Nc4ccc(F)cc4F)c(C)c3C)c2cc1OC` [Example 56, N-(2,4-Difluorophenyl)-N′-(4-{[6-methoxy-7-(2-methoxyethoxy)-4-quinolyl]oxy}-2,3-dimethylphenyl)-urea], the IC50 in test [1] (Endothelial cell) was determined as 5.1 nM.

As to `COc1cc2nccc(Oc3ccc(NC(=O)Nc4cccc5ccccc45)c(Cl)c3)c2cc1OC` [Example 23, N-{2-Chloro-4-[(6,7-dimethoxy-4-guinolyl)oxy]phenyl}-N′-(1-naphthyl)urea], the IC50 in test [1] is 5.4 nM.

As to `COCCOc1cc2nccc(Oc3ccc(NC(=O)Nc4ccccc4OC)c(C)c3C)c2cc1OC` [Example 57, N-(4-{[6-Methoxy-7-(2-methoxyethoxy)-4-quinolyl]oxy}-2,3-dimethylphenyl)-N′-(2-methoxyphenyl)urea], in test [1] (Endothelial cell), half-maximal inhibition (IC50) was put at 6.5 nM. In turn, `COc1cc2nccc(Oc3ccc(NC(=O)Nc4ccccc4C)c(Cl)c3)c2cc1OC` [Example 19, N-{2-Chloro-4-[(6,7-dimethoxy-4-quinolyl)oxy]phenyl}-N′-(2-methylphenyl)urea] had an IC50 in test [1] (Endothelial cell) of 0.6 nM. Same read-out and setting: then `COc1cc2nccc(Oc3ccc(NC(=O)NCc4ccc(F)cc4F)c(F)c3)c2cc1OC` [Example 1, N-(2,4-Difluorobenzyl)-N′-{4-[(6,7-dimethoxy-4-quinolyl)oxy]-2-fluorophenyl}urea], with 1.8 nM. For the compound `CCCNC(=O)Nc1ccc(Oc2ccnc3cc(OCCO)c(OC)cc23)cc1Cl` [Example 149, N-(2-chloro-4-{[7-(2-hydroxyethoxy)-6-methoxy-4-quinolyl]oxy}phenyl)-N′-propylurea], half-maximal inhibition against human KDR (IC50) required 1.6 nM. The inhibition in vivo at 20 mg/kg with Human glioma cells GL07 came to 47%. Turning to `COC(=O)COc1cc2ncnc(Oc3ccc(NC(=O)N(C)C)c(Cl)c3)c2cc1OC` [Example 181, Methyl 2-{[4-(3-chloro-4-{[(dimethylamino)carbonyl]amino}phenoxy)-6-methoxy-7-quinazolinyl]oxy}acetate], at human KDR, the IC50 was over 1000 nM. In the test on Human glioma cells GL07, the inhibition in vivo at 20 mg/kg stood at 21%. At human KDR, `COc1cc2c(Oc3ccc(NC(=O)Nc4ccc(F)cc4F)c(Cl)c3)ccnc2cc1OCCn1ccnn1` [Example 170, N-[2-chloro-4-(6-methoxy-7-{[2-(1H-1,2,3-triazol-1-yl)ethoxy]-4-quinolyl}oxy)phenyl]-N′-(2,4-difluorophenyl)urea] came in with an IC50 of 1.1 nM. In addition, in the test with Human glioma cells GL07, the “TGIR, % (tumor growth inhibition rate)” value came to 64%. At human KDR, `CCCNC(=O)Nc1ccc(Oc2ccnc3cc(OCCCO)c(OC)cc23)cc1Cl` [Example 147, N-(2-Chloro-4-{[7-(3-hydroxypropoxy)-6-methoxy-4-guinolyl]oxy}phenyl)-N′-propylurea] displayed an IC50 of 1 nM. Further, the inhibition in vivo at 20 mg/kg in the test with Human glioma cells GL07 came to 34%. The compound `CCCNC(=O)Nc1ccc(Oc2ccnc3cc(OCCCCn4ccnn4)c(OC)cc23)cc1Cl` [Example 158, N-[2-Chloro-4-({6-methoxy-7-[4-(1H-1,2,3-triazol-1-yl)butoxy]-4-guinolyl}oxy)phenyl]-N′-propylurea] had an IC50 against human KDR of 1.6 nM. In the test on Human glioma cells GL07, the inhibition in vivo at 20 mg/kg came out at 39%. Taken in the same sequence, the figures for `COc1cc2c(Oc3cc(C)c(NC(=O)Nc4ccc(F)cc4F)cc3C)ccnc2cc1OCCn1ccnn1` [Example 177, N-(2,4-Difluorophenyl)-N′-[4-({6-methoxy-7-[2-(1H-1,2,3-triazol-1-yl)ethoxy]-4-guinolyl}oxy)-2,5-dimethylphenyl]urea] were 2.3 nM and 35%. The corresponding values for `CCCNC(=O)Nc1ccc(Oc2ccnc3cc(OCCN(C)CCO)c(OC)cc23)cc1Cl` [Example 150, N-{2-Chloro-4-[(7-{2-[(2-hydroxyethyl)-(methyl)amino]ethoxy}-6-methoxy-4-guinolyl)oxy]phenyl}-N′-propylurea] are 1.8 nM and 22%. `CCCNC(=O)Nc1ccc(Oc2ccnc3cc(OCCCCn4ccnc4)c(OC)cc23)cc1Cl` [Example 160, N-[2-chloro-4-(7-{[4-(1H-1-imidazolyl)-butoxy]-6-methoxy-4-quinolyl}oxy)phenyl]-N′-propylurea] displayed an IC50 at human KDR of 0.9 nM. Also, in the test with Human glioma cells GL07, the “TGIR, % (tumor growth inhibition rate)” value is 43%. Take `CCCNC(=O)Nc1ccc(Oc2ccnc3cc(OCc4cccnc4)c(OC)cc23)cc1Cl` [Example 142, N-(2-chloro-4-{[6-methoxy-7-(3-pyridylmethoxy)-4-quinolyl]oxy}phenyl)-N′-propylurea]: inhibition at human KDR was half-maximal at 2.6 nM (IC50). Besides, the inhibition in vivo at 20 mg/kg in the test with Human glioma cells GL07 amounted to 48%. The corresponding values for `COc1cc2c(Oc3ccc(NC(=O)Nc4ccc(F)cc4F)c(Cl)c3)ccnc2cc1OCCN(C)CCO` [Example 167, N-{2-Chloro-4-[(7-{2-[(2-hydroxyethyl)-(methyl)amino]ethoxy}-6-methoxy-4-guinolyl)oxy]phenyl}-N′-(2,4-difluorophenyl)urea] are 2.1 nM and 28%. For `C#CCNC(=O)Nc1ccc(Oc2ccnc3cc(OC)c(OC)cc23)cc1F` [Example 7, N-{4-[(6,7-Dimethoxy-4-quinolyl)oxy]-2-fluorophenyl}-N′-(2-propynyl)urea], the IC50 in test [1] (Endothelial cell) amounted to 5.2 nM. In turn, `CCNC(=O)Nc1ccc(Oc2ccnc3cc(OC)c(OC)cc23)cc1F` [Example 8, N-{4-[(6,7-Dimethoxy-4-guinolyl)oxy]-2-fluorophenyl}-N′-ethylurea] gave an IC50 in test [1] of 11 nM. `CCCNC(=O)Nc1ccc(Oc2ccnc3cc(OCCCN4CCN(C)CC4)c(OC)cc23)cc1Cl` [Example 152, N-[2-chloro-4-(6-methoxy-7-{[3-(4-methylpiperazino)propoxy]-4-quinolyl}oxy)phenyl]-N′-propylurea] yielded an IC50 against human KDR of 0.8 nM. Moreover, the inhibition in vivo at 20 mg/kg in the test with Human glioma cells GL07 came to 44%.

Take `CCNC(=O)Nc1cc(C)c(Oc2ccnc3cc(OCCN4CCOCC4)c(OC)cc23)cc1C` [Example 175, N-Ethyl-N′-(4-{[6-methoxy-7-(2-morpholinoethoxy)-4-guinolyl]oxy}-2,5-dimethylphenyl)urea]: the IC50 against human KDR stood at 4.7 nM. Moreover, the inhibition in vivo at 20 mg/kg with Human glioma cells GL07 is 17%. Taken in the same sequence, the figures for `COc1cc2c(Oc3ccc(NC(=O)Nc4ccc(F)cc4F)c(Cl)c3)ncnc2cc1OCCN1CCOCC1` [Example 162, N-(2-chloro-4-{[6-methoxy-7-(2-morpholinoethoxy)-4-quinazolinyl]oxy}phenyl)-N′-(2,4-difluorophenyl)urea] were 1 nM and 40%. Taken in the same sequence, the figures for `CCCNC(=O)Nc1ccc(Oc2ccnc3cc(OCCCN4CCOCC4)c(OC)cc23)cc1Cl` [Example 151, N-(2-chloro-4-{[6-methoxy-7-(3-morpholinopropoxy)-4-quinolyl]oxy}phenyl)-N′-propylurea] were 0.5 nM and 44%.

For `CCCNC(=O)Nc1ccc(Oc2ccnc3cc(OCc4ccncc4)c(OC)cc23)cc1Cl` [Example 143, N-(2-chloro-4-{[6-methoxy-7-(4-pyridylmethoxy)-4-quinolyl]oxy}phenyl)-N′-propylurea], on human KDR, the IC50 is 3.5 nM. Moreover, the inhibition in vivo at 20 mg/kg in the test on Human glioma cells GL07 was 53%.

What is called IC50 is the concentration at which inhibition is half-maximal. High values mean a need for much substance, low ones inhibition by little substance.

The values are drawn from patent US7169789B2 (Kirin Beer Kabushiki Kaisha, priority 1999, dated 2007).
